Series [1] deals with T1, aldehyde dehydrogenase 2 (ALDH2) (Homo sapiens, UniProt P05091).
T1 construct: purchased ATGen Inc
T1 sequence (P05091 18-517): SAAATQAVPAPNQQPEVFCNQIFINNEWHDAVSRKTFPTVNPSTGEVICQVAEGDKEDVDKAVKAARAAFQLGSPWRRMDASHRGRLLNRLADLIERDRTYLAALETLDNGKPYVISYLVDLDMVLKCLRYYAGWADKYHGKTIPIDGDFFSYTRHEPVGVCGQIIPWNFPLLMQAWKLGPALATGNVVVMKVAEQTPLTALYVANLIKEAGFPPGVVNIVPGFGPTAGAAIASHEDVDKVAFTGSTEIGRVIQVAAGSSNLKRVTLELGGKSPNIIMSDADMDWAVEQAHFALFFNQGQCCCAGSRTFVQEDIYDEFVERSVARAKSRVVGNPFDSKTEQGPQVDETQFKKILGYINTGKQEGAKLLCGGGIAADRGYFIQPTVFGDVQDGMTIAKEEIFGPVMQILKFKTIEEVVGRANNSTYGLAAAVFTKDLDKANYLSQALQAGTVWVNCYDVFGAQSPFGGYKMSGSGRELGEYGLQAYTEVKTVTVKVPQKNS
The experiment in a line: Effects of compounds on the acetaldehyde oxidation rate by ALDH2 (PicoProbe Aldehyde dehydrogenase Activity Assay Kit). The class given is biochemical. The note with it: read-out: acetaldehyde oxidation rate (rate in the absence of the compounds = 100); for activity at 1 µM: compound concentration 1 μM; for activity at 10 µM: compound concentration 10 μM. The method, then:
(Effects of Compounds on the Acetaldehyde Oxidation Rate by Aldehyde Dehydrogenase 2 (ALDH2))
Effects of compounds on the acetaldehyde oxidation rate by aldehyde dehydrogenase 2 (ALDH2) were evaluated using a method known in the art. Specifically, the test was performed using a commercially available kit, PicoProbe™ Aldehyde dehydrogenase Activity Assay Kit (from BioVision Inc.) in accordance with the product's instruction. Reagents as described below were sequentially added to each well in a 384-well plate with a pipette.
1. 10 μL of the commercially available ALDH2 enzyme (from ATGen Inc.) dissolved in ALDH assay Buffer so as to obtain a concentration of 1 μg/mL.
2. 10 μL, of 30 μM or 3 μM compound solution (containing 3% DMSO) prepared with ALDH assay Buffer
3. […] of Reaction mix consisting of 7.82 μL of ALDH assay Buffer, 0.55 μL of PicoProbe, 0.27 μL of Substrate Mix, and 1.36 μL of Acetaldehyde
Before addition of 3, the plate was incubated at room temperature for 5 minutes. After addition of 3, fluorescence was determined using EnVision 2101 Multilabel Reader (from PerkinElmer Inc.) at room, temperature over 60 minutes. The measurements were taken at interval of 2 minutes.
Fluorescence was detected at an excitation wavelength of 535 nm and an emission wavelength of587 nm.
Table 1 lists the oxidation rates when the compounds are added, in which the rates are calculated on the basis of the assumption that the acetaldehyde oxidation rates in the absence of the compounds are 100. The rate for Comparative Example 1 compound was normalized to a value of “175” for 10 μM of the compound concentration while the rate for Comparative Example 1 compound was normalized to a value of “137” for 1 μM of the compound concentration.

How the values of series [2] were obtained: (Comparison of Amounts of Produced Reactive Metabolites)
Ability of compounds to produce reactive metabolites was evaluated, using the method as described below. Cytochrome P450 (CYP) dependent metabolism was initiated, by adding 1 mg/mL human liver microsome, 0.2 mmol/L compound, and 0.1 mmol/L RI-labeled capture agent, and lastly 1 mmol/L NADPH to 100 mM phosphate buffer (pH 7.4). After incubation at 37° C. for 60 minutes, the reaction mixture (0.1 mL) and an equal volume of acetonitrile were added to stop the metabolic reaction. After 0.8 mL of water was added to the supernatant from centrifugation, 0.5 mL of the resulting solution was injected into HPLC connected to a radio detector and a covalent complex between the reactive metabolite and Relabeled capture agent was quantitatively analyzed for its RI intensity.

For series [3], the system named is mechanical allodynia induced by carrageenan in C57 BL/6J mice. The experiment in a line: Suppressive effect of pain induced by carrageenan (von Frey withdrawal score). The class given is in vivo, mouse. The note with it: mean ± S.E. The method, then:
(Suppressive Effect of Pain Induced by Carrageenan)
This experiment was earned out with reference to Science Translational Medicine 6, 251 r118 (2014). Male C57 BL/6J mice (Charles River Japan) of 7-week-old were used. Carrageenan was subcutaneously administered to the mouse by intraplantar injection of the left hind paw to induce mechanical allodynia in the footpad. Mechanical stimulus-evoked withdrawal response at 180 min after the induction was assessed by applying a von Frey filament (ascending bending force 0.16 g) to the footpad, of the hind paw. The filament was perpendicularly applied to the footpad so that the filament was bent for 6 second. The withdrawal response was scored in three stages (0: no response or startle response (moving paw without lifting); 1: lifting of paw; 2: licking or shaking of paw). The mouse was stimulated ten times and the sum of the scores of the ten stimulation (withdrawal score) was calculated.
The compound of Example 1 was dissolved in DMSO/5% glucose solution for injection (1:1 by volume ratio). […]
Wilcoxon rank sum test was used to compare the vehicle-treated group and the Example 1-treated group. The significance level was calculated as 5%, divided into less than 5% (p<0.05) and less than 1% (p<0.01). […]

`O=C(NCc1ccc2c(c1)OCO2)c1c(Cl)cccc1Cl` [Comparative Example 1, N-[(2H-1,3-Benzodioxol-5-yl)methyl]-2,6-dichlorobenzamide, reference compound]: in series [1], the activity at 1 µM is 137% and the activity at 10 µM came to 175%. In series [2], the “amount of reactive metabolites produced, in words” value is reported as “produces reactive metabolites as much as clozapine”.
For `O=C(NCc1ccc2c(c1)OCCO2)c1c(Cl)cccc1Cl` [Comparative Example 2, 2,6-dichloro-N-[(2,3-dihydro-1,4-benzodioxin-6-yl)methyl]benzamide, reference compound], in series [1], the activity at 1 µM was found to be 125% and the activity at 10 µM was determined as 164%.
As to `COCc1ccc(CNC(=O)c2c(Cl)cccc2Cl)cc1F` [Example 1, 2,6-Dichloro-N-{[3-fluoro-4-(methoxymethyl)phenyl]methyl}benzamide], the activity at 1 µM in series [1] came to 138%. For the same molecule, the activity at 10 µM in series [1] was determined as 179%. The “Total pain-related score (withdrawal score)” value in series [3] (180 min after carrageenan induction, 12 mg/kg s.c. three times, **p < 0.01 vs vehicle) is 6.8 ± 1.0**; in series [3] (Pre: before carrageenan induction), 1.6 ± 0.2.
For the molecule `COCc1cc(F)c(CNC(=O)c2c(Cl)cccc2Cl)cc1F` [Example 2, 2,6-Dichloro-N-{[3,6-difluoro-4-(methoxymethyl)phenyl]methyl}benzamide], in series [1], the activity at 1 µM was determined as 125% and the activity at 10 µM worked out at 168%.
In the same order, the values of `COCc1ccc(CNC(=O)c2c(Cl)cccc2Cl)cc1` [Example 3, 2,6-Dichloro-N-[4-(methoxymethyl)benzyl]benzamide] are 117% and 156%.
Consider `COCc1ccc(CNC(=O)c2c(Cl)cccc2Cl)cc1C` [Example 4, 2,6-Dichloro-N-{[4-(methoxymethyl)-3-methylphenyl]methyl}benzamide], for which, in series [1], the activity at 1 µM worked out at 136% and the activity at 10 µM is 175%.
For `COCc1ccc(CNC(=O)c2c(Cl)cccc2Br)cc1F` [Example 5, 2-Bromo-6-chloro-N-{[3-fluoro-4-(methoxymethyl)phenyl]methyl}benzamide], in that order: 129% and 168%.
In the case of `COCc1ccc(CNC(=O)c2ccccc2Cl)cc1F` [Example 6, 2-Chloro-N-{[3-fluoro-4-(methoxymethyl)phenyl]methyl}benzamide], in series [1], the activity at 1 µM turned out to be 108% and the activity at 10 µM amounted to 148%.
In the same order, the values of `COCc1ccc(CNC(=O)c2ccccc2Br)cc1F` [Example 7, 2-Bromo-N-{[3-fluoro-4-(methoxymethyl)phenyl]methyl}benzamide] are 119% and 156%.
In the same order, the values of `COCc1ccc(CNC(=O)c2c(F)cccc2Br)cc1F` [Example 8, 2-Bromo-6-fluoro-N-{[3-fluoro-4-(methoxymethyl)phenyl]methyl}benzamide] are 128% and 165%.
For `COCc1ccc(CNC(=O)c2c(F)cccc2Cl)cc1F` [Example 10, 2-Chloro-6-fluoro-N-{[3-fluoro-4-(methoxymethyl)phenyl]methyl}benzamide], in series [1], the activity at 1 µM came to 125% and the activity at 10 µM was 168%.
In the same order, the values of `COCc1ccc(CNC(=O)c2c(C)cccc2C)cc1F` [Example 11, N-{[3-Fluoro-4-(methoxymethyl)phenyl]methyl}-2,6-dimethylbenzamide] are 117% and 156%.
For the molecule `COCc1ccc(CNC(=O)c2c(Cl)cccc2C(C)C)cc1F` [Example 12, 2-Chloro-N-[3-fluoro-4-(methoxymethyl)benzyl]-6-isopropylbenzamide], in series [1], the activity at 1 µM was 136% and the activity at 10 µM was determined as 175%.
For `COCc1ccc(CNC(=O)c2c(F)cccc2F)cc1F` [Example 13, 2,6-Difluoro-N-{[3-fluoro-4-(methoxymethyl)phenyl]methyl}benzamide], in that order: 114% and 143%.
